Tests used:
[1] = tested on: Planaria (Dugesia japonica); assay: Planaria tissue regeneration after surgical injury (head resection), tissue regeneration index; type: in vivo; conditions: surgically injured planaria vs vehicle
Method: (§1) Planaria regeneration: Planaria (Dugesia japonica; Dj) were kept in water (Poland Spring) at 18° C. All animals were starved for at least 7 days prior to experiments. Tissue regeneration was assessed as in (12). Briefly, planaria were subject to head resection post-occularly (surgical Injury). The posterior portions of the planaria were then placed in spring water containing 0.01% EtOH, SPE-C isolate fraction 2 from resolving exudates or milk at the indicated dilutions, U0126 (Extracellular signal-regulated kinases (ERK) inhibitor; Cell Signaling Technology; 25 μM (16)), U0126 plus resolving exudates SPE-C isolates fraction 2, SCI (100 nM), SCII (100 nM), lipoxygenase inhibitor (baicalein, 10 μM) or lipoxygenase inhibitor plus SCI and SCII (100 nM). The extent of tissue regeneration during a 6-day period for D. japonica was determined using captured images of the regenerating blastemas at regular intervals (24 h). These images were analyzed using ImageJ software. A tissue regeneration index (TRI) was employed that took into consideration the size of the regenerated tissue total area (A) and the post-ocular width W of the animal, where TRI=A/W. In determined experiments, planaria were injured and incubated in water, containing 10^8CFU E. coli (serotype O6:K2:H1) or with E. coli plus SCI and SCII (100 nM), and tissue regeneration indices assessed as described above.
Planaria regeneration: Planaria (Dugesia japonica) were kept in water (Poland. Spring; Nestlé Waters North America, Stamford, Conn., USA) at 18° C. All animals were starved for at least 7 d before the experiments. Tissue regeneration was assessed as described previously (10). In brief, planaria were subjected to head resection postoccularly (surgical injury). The posterior portions of the planaria were then placed in spring water containing 0.01% EtOH, 16-glutathionyl, 17-hydroxyl-4Z,7Z,10,12,14,19Z-docosahexaenoic acid plus 16-cysteinylglycinyl, 7-hydroxyl-4Z,7Z,10,12,14,19Z-docosahexaenoic acid (50 nM; each) or 8-gutathionyl, 7,17-dihydroxyl-4Z9,11,13Z,15E,19Z-docosahexaenoic acid plus 8-cysteinylglycinyl, 7,17-dihydroxyl-4Z,9,11,13Z,15E,19Z-docosahexaenoic acid (50 nM, each). The extent of tissue regeneration during a 6-d period was determined using captured images of the regenerating blastemas at regular intervals (24 h). These images were analyzed using ImageJ software (NIH, Bethesda, Md., USA). A tissue regeneration index (TRI) was used that took into consideration the size of the regenerated tissue total area (A) and the postocular width (W), where TRI=A/W (10).

[2] = tested on: Mice (zymosan peritonitis); assay: Zymosan peritonitis in mice: leukocyte counts and exudate eicosanoids; type: in vivo, mouse; conditions: i.p. prior to 1 mg zymosan; 4 h; MaR1 10 ng
Method: In determined experiments, mice were administered SC isolates from regenerating planaria i.p., obtained as described in the lipid mediator metabololipidomics and isolation of bioactive fractions section below, immediately prior to zymosan administration (i.p. 1 mg/mouse). After 4 h, peritoneal exudates were obtained, leukocytes enumerated as detailed above and eicosanoid levels assessed by lipid mediator metabololipidomics as described below.

LOX = assay: SC levels in regenerating planaria with lipoxygenase inhibitor (LC-MS-MS); type: in vivo, Dugesia japonica; conditions: measured 3 days post-surgery
Method: as §1, with “The posterior portions of the planaria were then placed in spring water containing 0.01% EtOH, SPE-C isolate fraction 2 from resolving exudates or milk at the indicated dilutions, U0126 (Extracellular signal-regulated kinases (ERK) inhibitor; Cell Signaling Technology; 25 μM (16)), U0126 plus resolving exudates SPE-C isolates fraction 2, SCI (100 nM), SCII (100 nM), lipoxygenase inhibitor (baicalein, 10 μM) or lipoxygenase inhibitor plus SCI and SCII (100 nM).” left out
Lipid mediator metabololipidomics and isolation of bioactive fractions: Peritoneal exudates and exudate cell incubations were immediately placed in 2 volumes of methanol. For lipid mediator profiling, 500 pg each of deuterium-labeled internal standards: d8-5S-HETE, d4-LTB4, d5-LXA4, d4-PGE2, and d5-LTC4 were added to facilitate quantification in each respective chromatographic region and sample recovery. […]

| levels of both SCI and SCII (LOX) | SMILES | tissue regeneration / head regrowth (in words) [1] | exudate eicosanoid levels including LTB4 and thromboxane (Tx) B2 [2] | neutrophil recruitment in murine peritonitis [2] |
| --- | --- | --- | --- | --- |
| – | CC/C=C\C/C=C\C[C@H](O)\C=C/C=C/C=C/[C@H](O)C/C=C\CCC(=O)O [MaR1, 7R,14S-dihydroxy-docosa-4Z,8E,10E,12Z,16Z,19Z-hexaenoic acid] | accelerated this process to essentially the same extent | shared | shared |
| reduced | O=c1cc(-c2ccccc2)oc2cc(O)c(O)c(O)c12 [baicalein, reference compound] | significantly delayed head regrowth | – | – |

— patent US11135228B2, “Cysteinyl-proresolving mediators that promote resolution of infection and organ protection” (THE BRIGHAM AND WOMEN'S HOSPITAL, priority 2014, dated 2021)
